pIC50, pKi: −log10 of the molar value.
These compounds were tested against T1, Fatty-acid amide hydrolase 1 (Rattus norvegicus, UniProt P97612) (assay: Inhibition of rat FAAH). Conditions: not given.
T1 sequence (P97612 whole entry): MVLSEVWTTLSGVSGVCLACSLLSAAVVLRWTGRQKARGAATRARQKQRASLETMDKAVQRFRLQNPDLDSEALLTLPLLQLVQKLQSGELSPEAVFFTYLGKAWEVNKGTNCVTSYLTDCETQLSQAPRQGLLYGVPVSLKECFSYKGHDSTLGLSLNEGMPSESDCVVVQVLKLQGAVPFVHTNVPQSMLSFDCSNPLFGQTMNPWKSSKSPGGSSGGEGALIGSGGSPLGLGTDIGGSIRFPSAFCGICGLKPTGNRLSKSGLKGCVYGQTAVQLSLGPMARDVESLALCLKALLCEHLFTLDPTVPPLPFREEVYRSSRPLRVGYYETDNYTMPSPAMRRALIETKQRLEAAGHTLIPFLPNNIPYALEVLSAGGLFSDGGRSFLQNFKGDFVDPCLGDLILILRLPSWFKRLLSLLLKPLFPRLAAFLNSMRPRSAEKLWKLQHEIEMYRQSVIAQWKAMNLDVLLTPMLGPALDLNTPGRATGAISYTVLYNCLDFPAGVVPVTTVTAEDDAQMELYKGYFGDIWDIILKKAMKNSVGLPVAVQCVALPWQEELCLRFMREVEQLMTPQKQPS

Row | SMILES | pIC50
1 | CCCC(C)C1(CC)C(=O)NC(=S)NC1=O (stereo not given) [THIOPENTAL] | 2.70
2 | CC(C)c1cccc(C(C)C)c1O [PROPOFOL] | 4.85
3 | CN(C)C(=O)n1nnnc1Cc1ccc(-c2ccccc2)cc1 | 7.91

These compounds were tested against T2, Fatty-acid amide hydrolase 1 (Homo sapiens, UniProt O00519) (assay: Inhibition of FAAH). Conditions: not given.
T2 sequence (O00519 whole entry): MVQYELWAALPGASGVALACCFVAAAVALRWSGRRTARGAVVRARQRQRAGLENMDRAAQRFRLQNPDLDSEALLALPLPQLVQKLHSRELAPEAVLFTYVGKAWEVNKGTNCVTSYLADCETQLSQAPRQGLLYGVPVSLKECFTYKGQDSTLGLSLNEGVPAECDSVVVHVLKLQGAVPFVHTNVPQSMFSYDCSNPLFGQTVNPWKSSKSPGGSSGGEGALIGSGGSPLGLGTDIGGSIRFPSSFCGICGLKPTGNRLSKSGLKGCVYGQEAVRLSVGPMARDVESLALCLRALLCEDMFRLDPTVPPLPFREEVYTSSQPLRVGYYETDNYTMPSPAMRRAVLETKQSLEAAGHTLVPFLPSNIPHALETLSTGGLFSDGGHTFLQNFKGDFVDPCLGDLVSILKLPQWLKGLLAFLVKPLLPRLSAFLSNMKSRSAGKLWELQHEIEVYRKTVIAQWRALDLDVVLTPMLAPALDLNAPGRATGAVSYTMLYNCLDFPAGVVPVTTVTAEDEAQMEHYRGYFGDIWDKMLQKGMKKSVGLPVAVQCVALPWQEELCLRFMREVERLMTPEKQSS

Row | SMILES | pKi
4 | N#Cc1cnc(C(=O)CCc2ccc(-c3ccccc3)cc2)o1 | 9.70
5 | O=C(CCCCc1ccccc1)c1nc2ncccc2o1 | 9.52
6 | CCCCCCCC/C=C\CCCCCCC(=O)c1nc2cccnc2o1 | 7.96
7 | O=C(CCCCCCc1ccccc1)C(F)(F)F | 7.00
8 | CCCCCCCC/C=C\CCCCCCCC(=O)O [OLEIC ACID] | 5.22
9 | O=C(CCCCCCc1ccccc1)c1nnn(-c2ccccn2)n1 | 8.96
10 | CCCCCCCC/C=C\CCCCCCC(=O)c1ncco1 | 7.77
11 | CCCCCCCC/C=C\CCCCCCC(=O)c1nc2cnccc2o1 | 8.14
12 | CCCCCCCCCC(=O)C(F)(F)F | 6.89
13 | CCCCCCCC/C=C\CCCCCCC(=O)c1nc(-c2ccccc2)c(-c2ccccc2)o1 | < 4.00
14 | CCCCCCCCCCCCCC(=O)C(F)(F)F | 6.31
15 | O=C(CCCCCCc1ccccc1)c1nnc(-c2ccccn2)[nH]1 | < 5.00
16 | CCCCCCCC/C=C\CCCCCCC(=O)c1nc2cc(C)ccc2o1 | < 4.00
17 | CCCCCCCC/C=C\CCCCCCCC(O)C(N)=O (stereo not given) | < 4.00
18 | CCCCCCCC/C=C\CCCCCCC(=O)c1ncc(-c2ccoc2)o1 | 6.21
19 | O=C(CCCCCCCCc1ccccc1)c1nc2ncccc2o1 | 9.28
20 | CCCCCCCC/C=C\CCCCCCCC(OC)OC | < 3.52
21 | CCCCCCC(C)OC(=O)CC(=O)CBr (stereo not given) | 6.09
22 | O=C(CCCCCc1ccccc1)c1nc2ncccc2o1 | 9.70
23 | CCCCCCCC/C=C\CCCCCCC(=O)c1ccccn1 | < 4.00
24 | O=C(O)c1cccc(CCCCCCC(=O)c2ncc(-c3ccccn3)o2)c1 | < 6.22
25 | CCCCCCCC/C=C\CCCCCCC(=O)c1ccncn1 | 6.96

Row | SMILES | pKi
26 | O=C(CCCCCCc1ccccc1)c1nnn[nH]1 | < 6.00
27 | CCCCCCCC/C=C\CCCCCCC(=O)c1nc2ncccc2o1 | 8.64
28 | CCCCCCCC/C=C\CCCCCCCC(C)=O | < 4.00
29 | O=C(CCCCS(=O)(=O)Cc1ccccc1)c1ncc(-c2ccccn2)o1 | < 5.00
30 | CCCCCCCC/C=C\CCCCCCCC(=O)C(=O)OCC | 8.05
31 | CCCCCCCCCCCCCCCCCC(=O)C(F)(F)F | 6.62
32 | CCCCCCCC/C=C\CCCCCCC(=O)c1ccccc1 | < 4.00
33 | O=C(CCCCOCc1ccccc1)c1ncc(-c2ccccn2)o1 | 7.26
34 | CCCCCCCC/C=C\CCCCCCCC(=O)C(F)(F)F | 7.92
35 | O=C(CCCCSCc1ccccc1)c1ncc(-c2ccccn2)o1 | 7.60
36 | CCCCCCCC/C=C\CCCCCCC(=O)c1nc2ccc(C)cc2o1 | < 4.00
37 | O=C(CCCCCCc1ccccc1)c1nc2ncccc2o1 | 9.55
38 | CCCCCCCC/C=C\CCCCCCC(=O)c1nnc(-c2ccccn2)o1 | 5.52
39 | CCCCCCCC/C=C\CCCCCCC(=O)c1ncc(-c2ccccc2)o1 | 6.49
40 | CCCCCCCC(=O)C(F)(F)F | 5.92
41 | CCCCCCCCCCCC(=O)C(F)(F)F | 6.85
42 | CCCCCCCC/C=C\CCCCCCC(=O)c1nnn(C)n1 | 7.19
43 | CCCCCCCC/C=C\CCCCCCC(=O)c1nc2ccncc2o1 | 8.43
44 | CCCCCCC(=O)C(F)(F)F | 4.97
45 | O=C(CCCCCCc1cccc(Cl)c1)c1ncc(-c2ccccn2)o1 | 9.05
46 | CCCCCCCC/C=C\CCCCCCC(=O)c1cccnn1 | 6.89
47 | CCCCCCCC/C=C\CCCCCCC(=O)c1nc2c(C)cccc2o1 | < 4.00

Row | SMILES | pKi
48 | O=C(CCCc1ccccc1)c1nc2ncccc2o1 | 8.16
49 | CCCCCC(=O)C(F)(F)F | 4.54
50 | CCCCCCCC/C=C\CCCCCCC(=O)c1nccn1C | < 4.00
51 | O=C(CCCCCCc1ccccc1)c1nnc[nH]1 | < 6.00
52 | CCCCCCCC/C=C\CCCCCCC(=O)c1ncc(-c2cccnc2)o1 | 7.21
53 | CCCCCCCC/C=C\CCCCCCCC(=O)C(N)=O | 7.77
54 | CCCCCCCC/C=C\CCCCCCCC=O [OLEALDEHYDE] | 6.72
55 | CCCCCCCC/C=C\CCCCCCC(=O)c1ncc(-c2ccco2)o1 | 7.27
56 | O=C(CCCCCCCc1ccccc1)c1nc2ncccc2o1 | 9.41
57 | CN(CCCCC(=O)c1ncc(-c2ccccn2)o1)Cc1ccccc1 | 6.70
58 | O=C(CCc1ccc(COc2ccccc2)cc1)c1ncc(-c2ccccn2)o1 | 9.00
59 | O=C(CCCC[S+]([O-])Cc1ccccc1)c1ncc(-c2ccccn2)o1 (stereo not given) | 5.60
60 | CCCCCCCC/C=C\CCCCCCC(=O)c1ncc(-c2ccccn2)o1 | 7.74
61 | CCCCCCCC/C=C\CCCCCCC(=O)c1nc2ccccc2o1 | 6.43
62 | CCCCCCCC/C=C\CCCCCCC(=O)c1nc2cccc(C)c2o1 | 4.89
63 | CCCCCCCC/C=C\CCCCCCC(=O)c1nc(-c2ccccn2)co1 | 7.51
64 | CCCCCCCC/C=C\CCCCCCC(=O)c1nccs1 | < 4.00
65 | CCCCCCCC/C=C\CCCCCCC(=O)c1ncc(-c2ccsc2)o1 | 4.88
66 | CCCCCCCC/C=C\CCCCCCCC(=O)CCl | 6.15
67 | CCCCCCCC/C=C\CCCCCCC(=O)c1ncc(-c2ccncc2)o1 | 7.25

Same assay, conditions: read-out: IC50

Row | SMILES | pIC50
68 | CNC(=O)COC(=O)N1CCC(CCc2ccc(Cl)cc2)CC1 | 7.89
69 | CCCCC/C=C\C/C=C\C/C=C\C/C=C\CCCC(=O)NCCCl | 6.05
70 | NC(=O)c1cccc(-c2cccc(OC(=O)NCc3ccc4ccccc4c3)c2)c1 | 9.20
71 | O=C(Nc1cccc(C(=O)c2nc3ccccc3o2)c1)NC1CCCC1 | < 3.52
72 | O=C(NC1CCCC1)Oc1cccc(C(=O)c2nc3ccccc3o2)c1 | 4.55
73 | CCCCC/C=C\C/C=C\C/C=C\C/C=C\CCCC(=O)NCCO [ANANDAMIDE] | 5.47
74 | CCCCC/C=C\C/C=C\C/C=C\C/C=C\CCCNC(=O)NCc1ccc(OC)c(O)c1 | 5.70
75 | CCCCC/C=C\C/C=C\C/C=C\C/C=C\CCCC(=O)O [ARACHIDONIC ACID] | < 4.00
76 | CCCCC/C=C\C/C=C\C/C=C\C/C=C\CCCC(=O)NCC1CC1 | 5.85
77 | OB(O)c1ccc(Oc2ccccc2)cc1 | > 8.00
78 | CCCCC/C=C\C/C=C\C/C=C\C/C=C\CCCC(=O)Nc1cccnc1 | 5.92
79 | O=C(NC1CCCC1)Oc1cccc(C(=O)c2nc3ccccc3s2)c1 | 4.33
80 | CC(C)c1cccc(CN2CCC(CCCC(=O)c3ncco3)CC2)c1 | 8.44
81 | CCOC(=O)CCCc1ccc(-n2c(CC)nc(-c3ccccc3)c2-c2ccccc2)cc1 | 7.19
82 | CCCCC/C=C\C/C=C\C/C=C\C/C=C\CCCC(=O)NC12CC3CC(CC(C3)C1)C2 | 4.43

Same assay, conditions: read-out: pIC50 (converted)

Row | SMILES | IC50
83 | C=CCNC(=O)CCCCCCCCCCCCCCC [HEXADECANOIC ACID ALLYLAMIDE] | 3.39 µM
84 | CCCCCCCCCCCCCCCC(=O)NCC | 3.55 µM
85 | CCCCCCCCCCCCCCCC(=O)NCCCO [N-(3-HYDROXYPROPYL)PALMITAMIDE] | 3.8 µM
86 | CCCCCCCCCCCCCCCC(=O)NCCBr | 3.55 µM
87 | CCCCCCCCCCCCCCCC(=O)NCCCCl | 2.51 µM
88 | CCCCCCCCCCCCCCCC(=O)NCCCl | 2.63 µM
89 | CCCCCCCCCCCCCCN1C(=O)C(c2ccccc2)(c2ccccc2)NC1=S | 1.15 µM

These compounds were tested against T2, Fatty-acid amide hydrolase 1 (assay: Inhibition of human FAAH). Conditions: not given.

Row | SMILES | pIC50
90 | CCCCCCCC/C=C\CCCCCCCNC(=O)Oc1cccc(-c2cccc(C(N)=O)c2)c1 | 7.24
91 | O=C(NCC1CCCCC1)Oc1ccc(C(=O)O)cc1 | > 7.00
92 | NC(=O)c1cccc(-c2cccc(OC(=O)NCCCCCCc3ccccc3)c2)c1 | 7.85
93 | O=C(NC1CCCCC1)Oc1cccc(-c2ccccc2)c1 | 7.20
94 | O=C(NC1CCCCC1)Oc1ccc2ccccc2c1 | 6.49
95 | CNC(=O)Oc1cccc2ccccc12 [CARBARIL] | < 4.52
